Assay results from patent EP4755886A1 (Chengdu Chipscreen Pharmaceutical Ltd., priority 2023, dated 2025).

Key:
[1] = Human liver microsome stability; format: in vitro ADME; settings: pH 7.4; human liver microsomes 0.5 mg/mL, compound 1 µM, NADPH 1 mM, 37 °C
Experimental: Experimental materials: human liver microsomes (purchased from BIOIVT);
PBS: 0.1 M KH2PO4 and K2HPO4 buffers, pH 7.4.
MgCl2: a certain amount of MgCl2 was weighed out and prepared into a 16 mM MgCl2 solution with PBS.
NADPH (Chinese name: reduced nicotinamide adenine dinucleotide phosphate, purchased from Sigma, Cat. No.: 481973-500 mg): a certain amount of NADPH was weighed out and a 4 mM solution of NADPH was prepared with a 16 mM MgCl2 solution, and the final incubation concentration was 1 mM.
Compounds: 4 µM solutions of the test compounds and positive compounds were prepared with PBS, and the final incubation concentration was 1 µM.
Liver microsomes (purchased from BIOIVT, Cat. No.: X008070): the liver microsomes were diluted to […] with PBS, and the final incubation concentration was 0.5 mg/mL.
The prepared test compound or positive compound was added to a test tube, and then the prepared NADPH was added. The mixture was mixed well. The mixture was pre-incubated in a thermostat incubator at 220 rpm at 37 °C for 5 min, and the prepared liver microsomes were added to start the reaction. All steps were performed in replicate wells. At 0 min, 15 min, 30 min, 45 min, and 60 min, a certain volume of glacial acetonitrile solution containing an internal standard was added to the corresponding tube to precipitate the protein. The mixture was vortexed for 5 min with shaking, and then centrifuged at 4000 rpm for 10 min. […] The samples were analyzed by LC-MS/MS.
The concentrations (peak area ratios) of the example compounds were determined by LC-MS/MS. Rate constants were obtained by plotting "Ln (residual amount of compound %)" versus "incubation time" in Excel, thereby calculating the half-lives and intrinsic clearances of the drugs and providing a basis for the prediction of the in-vivo clearance.
[formula] CLH = CLint × fu × Qh /(CLint×fu+Qh) [formula]
Stability in human liver microsomes

[2] = tested on: MTAP^-/- HCT-116 cells; test: Cell proliferation (MTS), MTAP-/- HCT-116; format: cell-based, human; settings: for IC50: Homo sapiens, 240 h, MTAP-/- HCT-116, 10 days with compound, MTS reading, read-out: IC50 HCT116 MTAP-/-; for Selectivity: HCT116 WT IC50 relative to HCT116 MTAP-/- IC50
How it was run: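 MTAP-/- (CRISPR/Cas9 biallelic knockout) or wild-type HCT-116 cells seeded at 100 cells/well, treated next day with 8-point 3-fold dilutions (top 20 µM) for 10 days at 37 °C, 5% CO2. Viability read by MTS; IC50 from four-parameter logistic fit of inhibition rate vs log concentration.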

[3] = tested on: human large cell lung cancer cell line LU99; test: Efficacy in LU99 xenograft mouse model; format: in vivo, Balb/c nude mice; settings: PO, qd, 28 days
Experimental: The human large cell lung cancer cell line LU99 was purchased from Nanjing Cobioer Biosciences Co., Ltd. (CBP61512) and cultured in RPMI-1640 medium (Gibco) containing 10% fetal bovine serum (Gibco); the test substances were prepared into suspensions at concentrations of 0.3 mg/mL, 1 mg/mL, and 5 mg/mL using a 0.5% aqueous MC solution containing 0.2% Tween 80. Reference Example 6 (MRTX1719) was prepared into a 5 mg/mL clear solution using 40% PEG400 normal saline containing 2% DMSO.
LU99 cells in the logarithmic growth phase were digested, collected, and counted, and the cell density was adjusted to 2 × 10^7 cells/mL using a 1:1 serum-free medium and matrigel (Corning). 18-20 g of Balb/c nude mice (Beijing Huafukang Biotechnology Co., Ltd.) were inoculated subcutaneously with 100 µL of cell suspension per mouse. On day 12 after inoculation, animals with a mean tumor volume of 116 mm^3 were randomly grouped, with 7 animals in each group. The test substances were intragastrically administered at 3 mg/kg, 10 mg/kg, and 50 mg/kg once daily, and MRTX1719 was intragastrically administered at 50 mg/kg once daily. A vehicle (2% DMSO + 40% PEG400 + 58% normal saline) was intragastrically administered to the blank group at a dose of 10 mL/kg once daily. Administration was performed for 28 days in total.
After the animals were inoculated with LU99 cells, the tumor volume was measured 2-3 times a week, and the tumor volume was calculated based on length × width^2 × 0.5. On the day when the last administration was completed, except for the mice with tumor regression, which were subjected to discontinuation observation, the remaining mice were euthanized.
In the formula, VTt represents the tumor volume of the treatment group at each measurement, and VT0 represents the tumor volume measured when the treatment group is grouped; VCt represents the tumor volume of the model control group at each measurement, and VC0 represents the tumor volume measured when the model control group is grouped.
Data were analyzed using GraphPad Prism 9.0 software and expressed as Mean ± SEM (standard error). Pairwise comparisons between each administration group and the model control group were performed using one-way analysis of variance (ANOVA). Variance homogeneity was determined using the Brown-Forsythe method, and variance heterogeneity was determined using the Dunnett's T3 method. Table 8. Efficacy evaluation in LU99 xenograft mouse model

[4] = PK experiment in mice; settings: mouse, plasma, po, 10 mg/kg
Experimental: Experimental materials: the experimental animals were healthy adult female BALB/c mice (provided by Sichuan Vital River Laboratory Animal Technology Co., Ltd.).
Administration mode and sample collection in mice: BALB/c female mice received oral intragastrical administration (10 mg/kg, vehicle: 0.5% methylcellulose/0.2% Tween 80), and 60 µL of whole blood from the venous plexus of the fundus of the mice at different time points was collected at 0.25 h, 0.5 h, 1 h, 2 h, 4 h, 6 h, 8 h, and 24 h after administration and centrifuged at 4000 rpm for 6 min to collect plasma.
10 µL of mouse plasma sample was added to 190 µL of acetonitrile solution containing an internal standard to precipitate protein. The mixture was vortexed for 10 min and centrifuged at 4000 rpm for 10 min. The supernatant was collected and added to a 96-well plate. The samples were analyzed by LC-MS/MS. The drug concentrations in the plasma of mice at different time points after intragastric administration of the example compounds were measured by an LC-MS/MS method, and the related pharmacokinetic parameters were calculated, such that the pharmacokinetic behavior of the compounds in the mice was studied, and the pharmacokinetic characteristics were evaluated.

[5] = PK experiment in rats; format: in vivo; settings: rat; SD male rats, PO 10 mg/kg, vehicle 0.5% MC/0.2% Tween 80, plasma
Experimental: The samples were analyzed by LC-MS/MS. […] Table 6. Pharmacokinetic parameters for rats

| half-life at 1 µM [1] | IC50 [2] | AUC(0-t) ([4]; female, BALB/c) | Cmax ([4]; female, BALB/c) | SMILES | TGI ([3]; 3 mg/kg) | Tumor volume ([3]; 3 mg/kg) | TGI ([3]; 10 mg/kg) | Tumor volume ([3]; 10 mg/kg) | TGI ([3]; 50 mg/kg) | Tumor volume ([3]; 50 mg/kg) | AUC(0-t) [4] | Cmax [4] | AUC(0-t) [5] | Cmax [5] | Selectivity [2] |
| --- | --- | --- | --- | --- | --- | --- | --- | --- | --- | --- | --- | --- | --- | --- | --- |
| 2.03 h | 3.8 nM | 32300 ± 3340 ng·h/mL | 3420 ± 913 ng/mL | CN(C(=O)c1cc2c3c(c(N)nc2cc1Cl)COC3)[C@@H]1COc2cc(C#Cc3cnn(C4CC4)c3)ccc21 [Compound 43A, (S)-4-amino-7-chloro-N-(6-((1-cyclopropyl-1H-pyrazol-4-yl)ethynyl)-2,3-dihydrobenzofuran-3-yl)-N-methyl-1,3-dihydrofuro[3,4-c]quinoline-8-carboxamide] | 83.27% | 415.58 mm^3 | 94.77% | 210.31 mm^3 | 104.92% | 28.13 mm^3 |  |  | 9650 ± 1170 ng·h/mL | 1220 ± 417 ng/mL | 170 |
| 0.832 h | 2.4 nM |  |  | Cc1nn(C)cc1C#Cc1ccc2c(c1)OC[C@H]2N(C)C(=O)c1cc2c3c(c(N)nc2cc1Cl)COC3 [Compound 50A, (S)-4-amino-7-chloro-N-(6-((1,3-dimethyl-1H-pyrazol-4-yl)ethynyl)-2,3-dihydrobenzofuran-3-yl)-N-methyl-1,3-dihydrofuro[3,4-c]quinoline-8-carboxamide] |  |  |  |  |  |  |  |  |  |  | 180 |

| SMILES | half-life at 1 µM [1] | IC50 [2] | AUC(0-t) ([4]; female, BALB/c) | Cmax ([4]; female, BALB/c) | TGI ([3]; 3 mg/kg) | Tumor volume ([3]; 3 mg/kg) | TGI ([3]; 10 mg/kg) | Tumor volume ([3]; 10 mg/kg) | TGI ([3]; 50 mg/kg) | Tumor volume ([3]; 50 mg/kg) | AUC(0-t) [4] | Cmax [4] | AUC(0-t) [5] | Cmax [5] | Selectivity [2] |
| --- | --- | --- | --- | --- | --- | --- | --- | --- | --- | --- | --- | --- | --- | --- | --- |
| CN(C(=O)c1cc2c(cc1F)nc(N)c1cnn(C)c12)[C@@H]1COc2cc(C#Cc3cnn(C)c3)ccc21 [Compound 5A, (S)-4-amino-7-fluoro-N,1-dimethyl-N-(6-((1-methyl-1H-pyrazol-4-yl)ethynyl)-2,3-dihydrobenzofuran-3-yl)-1H-pyrazolo[4,3-c]quinoline-8-carboxamide] | 1.11 h | 1.7 nM |  |  | 81.96% | 438.73 mm^3 | 95.20% | 202.05 mm^3 | 103.12% | 60.72 mm^3 | 15700 ± 1600 ng·h/mL | 2220 ± 230 ng/mL | 15600 ± 4640 ng·h/mL | 2180 ± 777 ng/mL |  |
